{"source": "ChEMBL document CHEMBL4251570", "about": "“Synthesis and biological evaluation of a novel β-D-2'-deoxy-2'-α-fluoro-2'-β-C-(fluoromethyl)uridine phosphoramidate prodrug for the treatment of hepatitis C virus infection” (Eur J Med Chem, 2018)", "key": {"Hepatitis C virus [1]": {"system": "Hepatitis C virus", "test": "Antiviral activity against Hepatitis C virus JFH-1 infected in human HuH7 cells assessed as inhibition of viral RNA replication after 3 days by quantitative real-time RT-PCR analysis", "format": "functional, organism-based", "conditions": "for Activity: Hepacivirus hominis; for EC50 / EC90: JFH-1, Huh-7, 72 h"}, "[2]": {"test": "Cytotoxicity against human HuH7 cells after 72 hrs by CellTiter 96 AQueous one solution cell proliferation assay", "format": "cell-based, Huh-7"}, "[3]": {"test": "Drug level in Sprague-Dawley rat liver treated with at 50 mg/kg, po 2-(((S)-(((2R,3R,4R,5R)-5-(2,4-dioxo-3,4-dihydropyrimidin-1(2H)-yl)-4-fluoro-4-(fluoromethyl)-3-hydroxytetrahydrofuran-2-yl)methoxy) (phenoxy)phosphoryl)amino) propanoate assessed as compound formation by HPLC-MS/MS analysis", "format": "ADME, organism-based", "conditions": "in vivo"}, "[4]": {"test": "Half life in simulated gastric fluid at pH 1.2 at 1 mg/ml incubated up to 24 hrs at 37 degC by HPLC analysis", "format": "ADME"}, "[5]": {"test": "Cmax in Sprague-Dawley rat liver assessed as 1-((2R,3R,4R,5R)-3-fluoro-3-(fluoromethyl)-4-hydroxy-5-(hydroxymethyl)tetrahydrofuran-2-yl)pyrimidine-2,4(1H,3H)-dione triphosphate at 50 mg/kg administered via oral gavage by HPLC-MS/MS analysis", "format": "ADME, organism-based", "set-up": "dose 50 mg/kg, route oral", "conditions": "in vivo"}, "Mus musculus [6]": {"system": "Mus musculus", "test": "Acute toxicity in Kunming mouse assessed as induction of damage to spleen at 2 to 4 g/kg, po administered as single dose measured after 15 days", "format": "organism-based", "conditions": "in vivo, 360 h"}, "[7]": {"test": "Tmax in Sprague-Dawley rat liver assessed as 1-((2R,3R,4R,5R)-3-fluoro-3-(fluoromethyl)-4-hydroxy-5-(hydroxymethyl)tetrahydrofuran-2-yl)pyrimidine-2,4(1H,3H)-dione triphosphate at 50 mg/kg administered via oral gavage by HPLC-MS/MS analysis", "format": "ADME, organism-based", "conditions": "in vivo"}, "Hepatitis C virus [8]": {"system": "Hepatitis C virus", "test": "Antiviral activity against Hepatitis C virus genotype 1b infected in human HuH7 cells after 48 hrs by luciferase reporter gene assay", "format": "functional, organism-based, Hepacivirus hominis", "conditions": "Huh-7, 48 h"}, "[9]": {"test": "Half life in human plasma at 1 mg/ml incubated up to 24 hrs at 37 degC by HPLC analysis", "format": "ADME, cell-free"}, "Hepatitis C virus [10]": {"system": "Hepatitis C virus", "test": "Antiviral activity against Hepatitis C virus genotype 2a infected in human HuH7 cells after 48 hrs by luciferase reporter gene assay", "format": "functional, organism-based, Hepacivirus hominis", "conditions": "Huh-7, 48 h"}, "Mus musculus [11]": {"system": "Mus musculus", "test": "Acute toxicity in Kunming mouse assessed as induction of damage to heart at 2 to 4 g/kg, po administered as single dose measured after 15 days", "format": "organism-based", "conditions": "in vivo, 360 h"}, "Hepatitis C virus [12]": {"system": "Hepatitis C virus", "test": "Antiviral activity against Hepatitis C virus JFH-1 infected in human HuH7 cells assessed as inhibition of viral core protein levels at 1 uM by Western blot method", "format": "functional, organism-based", "conditions": "Hepacivirus hominis"}, "[13]": {"test": "Half life in human liver S9 fraction at 1 mg/ml incubated up to 120 mins at 37 degC by HPLC analysis", "format": "ADME, subcellular"}, "[14]": {"test": "AUC (0 to infinity) in Sprague-Dawley rat liver assessed as 1-((2R,3R,4R,5R)-3-fluoro-3-(fluoromethyl)-4-hydroxy-5-(hydroxymethyl)tetrahydrofuran-2-yl)pyrimidine-2,4(1H,3H)-dione triphosphate at 50 mg/kg administered via oral gavage by HPLC-MS/MS analysis", "format": "ADME, organism-based", "set-up": "dose 50 mg/kg, time infinity, route oral", "conditions": "in vivo"}, "Hepatitis C virus [15]": {"system": "Hepatitis C virus", "test": "Antiviral activity against Hepatitis C virus genotype 1a infected in human HuH7 cells after 48 hrs by luciferase reporter gene assay", "format": "functional, organism-based, Hepacivirus hominis", "conditions": "subtype 1a, Huh-7, 48 h"}, "Mus musculus [16]": {"system": "Mus musculus", "test": "Acute toxicity in Kunming mouse assessed as induction of damage to kidney at 2 to 4 g/kg, po administered as single dose measured after 15 days", "format": "organism-based", "conditions": "in vivo, 360 h"}, "Mus musculus [17]": {"system": "Mus musculus", "test": "Acute toxicity in Kunming mouse assessed as induction of observable clinical toxic signs at 2 to 4 g/kg, po administered as single dose measured after 15 days", "format": "organism-based", "conditions": "in vivo, 360 h"}, "Mus musculus [18]": {"system": "Mus musculus", "test": "Acute toxicity in Kunming mouse assessed as mortality at 2 to 4 g/kg, po administered as single dose measured after 15 days", "format": "organism-based", "conditions": "in vivo, 360 h"}, "[19]": {"test": "Half life in Sprague-Dawley rat liver assessed as 1-((2R,3R,4R,5R)-3-fluoro-3-(fluoromethyl)-4-hydroxy-5-(hydroxymethyl)tetrahydrofuran-2-yl)pyrimidine-2,4(1H,3H)-dione triphosphate at 50 mg/kg administered via oral gavage by HPLC-MS/MS analysis", "format": "ADME, organism-based", "conditions": "in vivo"}, "Hepatitis C virus [20]": {"system": "Hepatitis C virus", "test": "Antiviral activity against Hepatitis C virus genotype 1b expressing NS5B RNA dependent RNA polymerase S282T mutant infected in human HuH7 cells after 48 hrs by luciferase reporter gene assay", "format": "functional, organism-based, Hepacivirus hominis", "conditions": "Huh-7, 48 h"}, "[21]": {"test": "Half life in simulated intestinal fluid at pH 7.4 at 1 mg/ml incubated up to 24 hrs at 37 degC by HPLC analysis", "format": "ADME"}, "Mus musculus [22]": {"system": "Mus musculus", "test": "Acute toxicity in Kunming mouse assessed as change in body weight at 2 to 4 g/kg, po administered as single dose measured after 15 days", "format": "organism-based", "conditions": "in vivo, 360 h"}, "Mus musculus [23]": {"system": "Mus musculus", "test": "Acute toxicity in Kunming mouse assessed as induction of induction of damage to lung at 2 to 4 g/kg, po administered as single dose measured after 15 days", "format": "organism-based", "conditions": "in vivo, 360 h"}, "[24]": {"test": "AUC (0 to t) in Sprague-Dawley rat liver assessed as 1-((2R,3R,4R,5R)-3-fluoro-3-(fluoromethyl)-4-hydroxy-5-(hydroxymethyl)tetrahydrofuran-2-yl)pyrimidine-2,4(1H,3H)-dione triphosphate at 50 mg/kg administered via oral gavage by HPLC-MS/MS analysis", "format": "ADME, organism-based", "conditions": "in vivo"}, "Mus musculus [25]": {"system": "Mus musculus", "test": "Acute toxicity in Kunming mouse assessed as induction of damage to liver at 2 to 4 g/kg, po administered as single dose measured after 15 days", "format": "organism-based", "conditions": "in vivo, 360 h"}}, "note": "Calls of active or inactive are those of the source. No cut-off for these calls is given here.", "data": [{"smiles": "CC(C)OC(=O)[C@H](C)N[P@](=O)(OC[C@H]1O[C@@H](n2ccc(=O)[nH]c2=O)[C@](C)(F)[C@@H]1O)Oc1ccccc1", "note": "[SOFOSBUVIR]", "values": [{"measurement": "Activity", "setting": "Hepatitis C virus [1]", "value": "Dose-dependent effect"}, {"measurement": "EC50", "setting": "Hepatitis C virus [1]", "value": 0.27, "unit": "µM"}, {"measurement": "EC90", "setting": "Hepatitis C virus [1]", "value": 0.83, "unit": "µM"}, {"measurement": "CC50 at 72 h", "setting": "[2]", "value": "> 1000", "unit": "µM"}]}, {"smiles": "O=c1ccn([C@@H]2O[C@H](COP(=O)(O)OP(=O)(O)OP(=O)(O)O)[C@@H](O)[C@]2(F)CF)c(=O)[nH]1", "values": [{"measurement": "Drug metabolism", "setting": "[3]", "value": "Metabolite_Detected"}]}, {"smiles": "CC(C)OC(=O)[C@H](C)N[P@](=O)(OC[C@H]1O[C@@H](n2ccc(=O)[nH]c2=O)[C@@](F)(CF)[C@@H]1O)Oc1ccccc1", "values": [{"measurement": "Activity", "setting": "Hepatitis C virus [1]", "value": "Dose-dependent effect"}, {"measurement": "EC50", "setting": "Hepatitis C virus [1]", "value": 0.18, "unit": "µM"}, {"measurement": "EC90", "setting": "Hepatitis C virus [1]", "value": 0.74, "unit": "µM"}, {"measurement": "half-life at 1 mg/ml", "setting": "[4]", "value": "> 24", "unit": "h"}, {"measurement": "Cmax", "setting": "[5]", "value": 1895, "unit": "ng/g"}, {"measurement": "Activity", "setting": "Mus musculus [6]", "value": "Non-Toxic"}, {"measurement": "Tmax", "setting": "[7]", "value": 5.83, "unit": "h"}, {"measurement": "EC50", "setting": "Hepatitis C virus [8]", "value": 0.24, "unit": "µM"}, {"measurement": "EC90", "setting": "Hepatitis C virus [8]", "value": 0.5, "unit": "µM"}, {"measurement": "half-life at 1 mg/ml", "setting": "[9]", "value": 17.3, "unit": "h"}, {"measurement": "EC50", "setting": "Hepatitis C virus [10]", "value": 0.54, "unit": "µM"}, {"measurement": "EC90", "setting": "Hepatitis C virus [10]", "value": 3.05, "unit": "µM"}, {"measurement": "Activity", "setting": "Mus musculus [11]", "value": "Non-Toxic"}, {"measurement": "Activity", "setting": "Hepatitis C virus [12]", "value": "Active"}, {"measurement": "half-life", "setting": "[13]", "value": 0.49, "unit": "h"}, {"measurement": "AUC", "setting": "[14]", "value": 15655, "unit": "ng·h/g"}, {"measurement": "EC50", "setting": "Hepatitis C virus [15]", "value": 0.31, "unit": "µM"}, {"measurement": "EC90", "setting": "Hepatitis C virus [15]", "value": 1.26, "unit": "µM"}, {"measurement": "Activity", "setting": "Mus musculus [16]", "value": "Non-Toxic"}, {"measurement": "Activity", "setting": "Mus musculus [17]", "value": "Non-Toxic"}, {"measurement": "Activity", "setting": "Mus musculus [18]", "value": "Non-Toxic"}, {"measurement": "t1/2", "setting": "[19]", "value": 3.73, "unit": "h"}, {"measurement": "EC50", "setting": "Hepatitis C virus [20]", "value": 1.13, "unit": "µM"}, {"measurement": "EC90", "setting": "Hepatitis C virus [20]", "value": 7.7, "unit": "µM"}, {"measurement": "half-life at 1 mg/ml", "setting": "[21]", "value": "> 24", "unit": "h"}, {"measurement": "Activity", "setting": "Mus musculus [22]", "value": "Non-Toxic"}, {"measurement": "Activity", "setting": "Mus musculus [23]", "value": "Non-Toxic"}, {"measurement": "AUCt", "setting": "[24]", "value": 14540, "unit": "ng·h/g"}, {"measurement": "Activity", "setting": "Mus musculus [25]", "value": "Non-Toxic"}, {"measurement": "CC50 at 72 h", "setting": "[2]", "value": "> 1000", "unit": "µM"}]}, {"smiles": "O=c1ccn([C@@H]2O[C@H](CO)[C@@H](O)[C@]2(F)CF)c(=O)[nH]1", "values": [{"measurement": "CC50 at 72 h", "setting": "[2]", "value": "> 1000", "unit": "µM"}]}]}
